Columns and labels:
HUVEC = experiment: In vitro ATP release assay (luciferin:luciferase), HUVEC; assay type: cell-based, human; conditions: for effect of inhibitor on TNFα-induced ATP release: antagonist 30 min, WP9QY 10 μM, La3+ 100 μM, BFA 5 μg/mL, RuR 20 μM, PP2/PP3 10 μM, Q-VD-OPh 100 μM; for reduction of TNFα-mediated ATP release: CBX 50 μM, ^10panx1 200 μM
Method: (§1) In vitro Human arterial and venous ECs were seeded in 24-well plates pre-coated with 0.2% gelatin and grown to confluency. On the day of experiment, the media was removed from each well and cells were carefully washed twice with warm serum free basal EC medium supplemented with 1% BSA. Cells were then incubated in 300 μL of fresh basal EC medium supplemented with 1% BSA for 30 minutes at 37° C. to allow degradation of extracellular ATP released due to mechanical stimulation during washes. Endogenous ecto-nucleotidases were inhibited by incubating EC monolayers with 300 μM ARL 67156 (Tocris) for 30 minutes at 37° C. Cells were then stimulated with recombinant human TNFα (R&D Systems). For dose response experiments, ECs were incubated with 0.1, 1, 5, 10, 50, or 100 ng/mL recombinant TNFα for 30 minutes at 37° C. For time-course experiments, ECs were stimulated with 10 ng/mL recombinant TNFα for different time points up to 1 hour. In experiments where pharmacological inhibitors were employed, ECs were incubated with antagonists in parallel with ARL 67156 for 30 minutes. To inhibit TNFR1, ECs were incubated with the peptide antagonist of the receptor WP9QY (10 μM; Anaspec). […] Cx hemichannels were inhibited with lanthanum (La^3+; 100 μM; Sigma) and Panx1 channels were blocked with carbenoxolone (CBX; 50 μM; Sigma) and the inhibitory peptide ^10panx1 (200 μM; Genscript). […] The role of caspase activation was assessed by inhibition with the pan-caspase blocker Q-VD-OPh (100 μM; Sigma). Following stimulation with TNFα or vehicle, 150 μL of the cell supernatant was collected and immediately placed into pre-chilled 1.5 mL Eppendorf tubes on ice. All samples were centrifuged at 10,000×g for 5 minutes and 50 μL of each sample was transferred to a white, opaque 96-well plate. Using a FluoStar Omega luminometer, 50 μL of luciferin:luciferase reagent (ATP bioluminescence assay kit HSII; Roche) was injected into each well and luminescence was recorded following a 5s orbital mix. ATP concentration in each sample was calculated from a standard curve for all experiments. Data are presented as a % change in ATP release from baseline (i.e. unstimulated cells) and expressed as mean±SEM (n=5 independent experiments with triplicate measurements).

HSaVEC = experiment: In vitro ATP release assay (luciferin:luciferase), HSaVEC; assay type: cell-based, human; conditions: for effect of inhibitor on TNFα-induced ATP release: antagonist 30 min, WP9QY 10 μM, BFA 5 μg/mL, RuR 20 μM, PP2/PP3 10 μM; for inhibition of TNFα-mediated ATP release: CBX, ^10panx1
Method: as §1

[1] = test system: THP-1 monocyte adhesion to HUVEC; experiment: Static adhesion assay, THP-1 monocytes on HUVEC; assay type: cell-based, human; conditions: HUVEC treated with inhibitor prior to TNFα stimulation
Method: HUVECs were seeded on gelatin-coated glass coverslips in 6-well plates and grown to confluence. On the day of the experiment, cells were washed 2× with 1× PBS and incubated for 30 minutes in basal EGM supplemented with 1% BSA in the presence or absence of pharmacological inhibitors. During this incubation period, human THP-1 monocytes were loaded with Calcein-AM (Invitrogen; 5 μg/mL) for 30 minutes at 37° C. Cells were then pelleted by brief centrifugation and excess calcein was removed by washing THP-1 cells 3 times in 1× PBS. Next, HUVECs were stimulated with TNFα (10 ng/mL) for 30 minutes. Following EC activation, calcein-loaded THP-1 monocytes were added to EC monolayers and incubated for 20 minutes at 37° C. to allow THP-1 to contact ECs. Monolayers were then washed 3× with 1× PBS and fixed in ice cold 4% PFA. Following fixation, coverslips were removed from the 6-well plates and mounted on glass microscope slides with Prolong Gold anti-fade mountant with DAPI (Life Technologies). Fluorescent micrographs were obtained at 10×magnification and the number of adherent THP-1 monocytes/ECs was quantified in 5 randomized regions/slide. Data are expressed as mean±SEM (n=3 independent experiments).

C57B1/6J mice = experiment: Intravital microscopy of cremaster muscle for leukocyte adhesion and emigration; assay type: in vivo, mouse; conditions: control C57B1/6J mice, tamoxifen 10 consecutive days
Method: Mice were prepared for intravital microscopy of the cremaster muscle as described previously^25. Briefly, mice were anesthetized with ketamine hydrochloride (150 mg/kg, IP) and xylazine (7.5 mg/kg, IP). The cremaster was isolated, laid over a viewing pedestal, superfused with bicarbonate-buffered saline. After 30 min equilibration, a venule with a wall shear rate (WSR) of ≥500/s, diameter between 20 μm and 40 μm, and the least number of adherent and emigrated leukocytes was chosen for further study. A 1 min baseline recording was made, after which superfusion was stopped, and 50 μl TNFα (1.7 ng/ml in 0.1% BSA) or vehicle control was added under a saran wrap cover every 30 min. 1 min recordings were made just prior to each addition, for 3 hrs. The TNFα was initially reconstituted in PBS at 3.4 ng/ml and 150 μl aliquots were frozen. An aliquot was mixed 1:1 with BBS containing 0.2% BSA at the time of the experiment. Leukocyte adhesion and emigration were determined by off-line analysis. Leukocytes were considered adherent if they stopped for at least 30 s (expressed as #/mm^2 vessel wall), and emigrated leukocytes were leukocytes identified in the interstitium (expressed as #cells/mm^2 tissue). Data are expressed as mean±SEM (n=6-7 independent animals/group).

[2] = test system: isolated murine mesenteric venules; experiment: Ex vivo vascular perfusion ATP release assay, mesenteric venules; assay type: cell-based, mouse; conditions: WP9QY 10 μM, PP2 10 μM
Method: For isolated blood vessel experiments, 2nd order venules or arterioles were dissected from the mouse mesentery circulation and cannulated on glass micropipettes to access the vessel lumen. […] Vessels were then perfused with MOPS PSS containing 300 μM ARL 67156 +/− pharmacological inhibitors and incubated for an additional 20 minutes prior to perfusion with MOPS PSS containing recombinant murine TNFα (R&D Systems). Aliquots of the lumenal perfusate were collected every 5 minutes for a 25-minute period and the ATP concentration was quantified by bioluminescence as described above. Data are expressed as mean±SEM (n=4 independent experiments).

Src Family Kinases (SFK) = experiment: Western blot of SFK activation (pY416SFK) in venous ECs; assay type: cell-based, human; conditions: HUVEC and HSaVEC; PP2/PP3 10 μM
Method: (§2) Following stimulation with TNFα (in vitro: 10 ng/mL; ex vivo: 50 ng/mL), confluent endothelial cell monolayers or isolated mesenteric venules were homogenized in ice cold Triton extraction buffer (50 mM Tris-HCL, 150 mM NaCl , 5 mM EDTA, 1% deoxycholate, 1% NP-40 and 1% Triton-X100 in phosphate buffered saline and pH adjusted to 7.4) containing protease and phosphatase inhibitors. Cell/Tissue lysates were incubated with rotation at 4° C. for 20 minutes to solubilize proteins, followed by centrifugation for 5 minutes at 13,000× g to pellet cell debris. Protein concentration was quantified using the BCA method. 15-20 μg of total protein was subjected to SDS gel electrophoresis using 4-12% Bis-Tris gels (Invitrogen) and transferred to nitrocellulose membranes for immunoblotting. Membranes were blocked for 1 hr at room temperature with LiCOR blocking solution, then incubated overnight at 4° C. with primary antibodies against pY416SFKs, (BD Biosciences; 1:1000) pY198Panx1 (Alpha Diagnostic Intl (ADI); 1:1000) and GAPDH (Sigma; 1:10,000) or an antibody against the intracellular loop of Panx1 (Panx1-IL) (ADI; 1:1000) (normalization controls). Membranes were then washed and incubated with LiCOR secondary antibodies (1:10,000) and visualized and quantitated using LiCOR Odyssey. To inhibit SFK activity, EC monolayers were incubated with the SFK inhibitor PP2 (Tocris; 10 μM). […] To show specificity for the phosphorylated form of SFKs and Panx1, cell lysates were incubated with alkaline phosphatase for 1 hour at 37° C. Western blot images have been cropped for presentation. Uncropped Western blots can be found in FIGS. 12-13. Data are expressed as mean±SEM (n=3 independent experiments).

Panx1 = experiment: Western blot of Panx1 phosphorylation at Y198 in venous ECs; assay type: cell-based, human
Method: as §2

pannexin1 channel = pannexin1 channel (Homo sapiens, UniProt Q96RD7); conditions: cited from earlier work
Panx1 channels in HUVEC = target: T1, Panx1 channels in HUVEC (Homo sapiens, UniProt Q96RD7); experiment: YO-PRO-1 dye uptake assay; assay type: cell-based; conditions: ^10panx1 200 μM, TNFα 10 ng/mL 30 minutes
T1 construct: Primary human umbilical vein endothelial cells (HUVEC) were purchased from Cell Applications; PromoCell 200K-05; C-12231; host or cells: HUVEC, HSaVEC (primary human venous endothelial cells)
Method: HUVECs were cultured on poly-L-lysine coated coverslips and grown to confluence in EGM. Cells were washed three times with 1× PBS and incubated in fresh EGM for 30 minutes prior to stimulation. To stimulate YO-PRO-1 dye uptake, YO-PRO-1 (1 μM) was added to the media and EC monolayers were treated with TNFα at a range of concentrations (0.1 ng/mL-100 ng/mL) for 30 minutes. At the end of the stimulation, cells were washed 3× with 1× PBS and immediately fixed in 4% PFA. Coverslips were then mounted on microscope slides with DAPI ProlongGold mounting agent and visualized on an Olympus IX81 laser scanning confocal microscope. Dye uptake was quantified as the intensity of YO-PRO-1 fluorescence over time using ImageJ software. For time course analysis, YO-PRO-1 was added to the culture media at various time points after TNFα stimulation and incubated to the 30-minute time point. Data are expressed as mean±SEM (n=3 independent experiments).

Sequence of pannexin1 channel (Q96RD7 whole entry): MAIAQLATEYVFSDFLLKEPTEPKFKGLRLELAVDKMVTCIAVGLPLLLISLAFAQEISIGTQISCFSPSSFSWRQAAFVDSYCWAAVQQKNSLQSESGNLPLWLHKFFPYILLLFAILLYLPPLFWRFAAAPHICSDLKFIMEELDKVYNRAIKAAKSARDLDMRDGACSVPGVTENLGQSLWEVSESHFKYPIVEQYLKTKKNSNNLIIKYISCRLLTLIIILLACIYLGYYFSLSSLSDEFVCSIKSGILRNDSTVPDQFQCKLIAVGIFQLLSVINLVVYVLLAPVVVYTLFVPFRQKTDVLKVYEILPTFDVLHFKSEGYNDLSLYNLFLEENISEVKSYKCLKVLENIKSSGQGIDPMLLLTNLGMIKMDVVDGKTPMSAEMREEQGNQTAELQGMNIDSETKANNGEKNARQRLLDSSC
T1 sequence (Q96RD7 whole entry): as above

## CC(C)[C@H](NC(=O)c1ccc2ccccc2n1)C(=O)N[C@@H](CC(=O)O)C(=O)COc1c(F)cccc1F [Q-VD-OPh]
HUVEC; HUVEC
  effect of inhibitor on TNFα-induced ATP release: lack of inhibition

## N.N.N.N.N.N.N.N.N.N.N.N.N.N.[Cl-].[Cl-].[Cl-].[Cl-].[Cl-].[Cl-].[O-2].[O-2].[Ru+3].[Ru+3].[Ru+4] [ruthenium red]
HUVEC; HUVEC
  effect of inhibitor on TNFα-induced ATP release: ruled out the involvement
HSaVEC; HSaVEC
  effect of inhibitor on TNFα-induced ATP release: ruled out the involvement

## Apyrase
[1]
  effect on TNFα-induced THP-1 monocyte adhesion: significantly reduced

## [La] [lanthanum]
HUVEC; HUVEC
  effect of inhibitor on TNFα-induced ATP release: failed to reduce ATP release

## CC/C(=C(\c1ccccc1)c1ccc(OCCN(C)C)cc1)c1ccccc1 [tamoxifen]
C57B1/6J mice
  effect on TNFα-induced leukocyte adhesion: no effect
  effect on TNFα-induced leukocyte emigration: no effect

## CC(C)(C)n1nc(-c2ccc(Cl)cc2)c2c(N)ncnc21 [PP2]
HUVEC; HUVEC
  effect of inhibitor on TNFα-induced ATP release: significantly blunted
HSaVEC; HSaVEC
  effect of inhibitor on TNFα-induced ATP release: significantly blunted
[2]
  effect of inhibitor on TNFα-induced ATP release: blunting ATP release
Src Family Kinases (SFK)
  effect on TNFα-induced Y416 phosphorylation of SFK: reduced Y416 phosphorylation to baseline levels
Panx1; HUVEC
  effect on Panx1 Y198 phosphorylation induced by c-Src overexpression: blocked
Panx1; HUVEC and HSaVECs, pretreatment with PP2
  effect on TNFα-induced Panx1 phosphorylation at Y198: blocked

## KYPIVEQYLKYGRKKQRRR (hybrid of human and HIV tat seq.) [IL2/PanX peptide]
[1]
  effect on TNFα-induced THP-1 monocyte adhesion: ability to block leukocyte adhesion
pannexin1 channel
  inhibition of pannexin1 channel (previously shown / known): potent and specific inhibitor

## WRQAAFVDSY [^10panx1]
HUVEC; HUVEC
  reduction of TNFα-mediated ATP release: 70.9%
HSaVEC; HSaVEC
  inhibition of TNFα-mediated ATP release: 75.2%
Panx1 channels in HUVEC
  effect on TNFα-induced YO-PRO-1 dye uptake: significantly attenuated
[1]
  effect on TNFα-induced THP-1 monocyte adhesion: significantly reduced
pannexin1 channel
  inhibition of pannexin1 channel (previously shown / known): block pannexin-1 gap junctions

## Nc1ncnc2c1cnn2-c1ccccc1 [PP3]
HUVEC; HUVEC
  effect of inhibitor on TNFα-induced ATP release: no significant effect
HSaVEC; HSaVEC
  effect of inhibitor on TNFα-induced ATP release: no significant effect
Src Family Kinases (SFK)
  effect on TNFα-induced Y416 phosphorylation of SFK: no effect

## IL-1β: recombinant human pro-inflammatory cytokine
HUVEC; HUVEC monolayers
  ATP release on cytokine stimulation: failed to promote ATP release
HUVEC; HUVEC, TNFα 10 ng/mL plus increasing IL-1β
  degree of ATP release on co-administration with TNFα vs TNFα alone: did not significantly alter
HSaVEC; HSaVEC monolayers
  ATP release on cytokine stimulation: failed to promote ATP release
HSaVEC; HSaVEC, TNFα 10 ng/mL plus increasing IL-1β
  degree of ATP release on co-administration with TNFα vs TNFα alone: did not significantly alter

## CC1(C)[C@@H](OC(=O)CCC(=O)O)CC[C@]2(C)[C@H]3C(=O)C=C4[C@@H]5C[C@@](C)(C(=O)O)CC[C@]5(C)CC[C@@]4(C)[C@]3(C)CC[C@@H]12 [CBX, carbenoxolone]
HUVEC; HUVEC
  reduction of TNFα-mediated ATP release: 86.4%
HSaVEC; HSaVEC
  inhibition of TNFα-mediated ATP release: 69.7%
[1]
  effect on TNFα-induced THP-1 monocyte adhesion: significantly reduced
